# In PubChem BioAssay AID1963444 (Molecular Pharmacology Branch, DTP, NCI, 2024):
# Tested on: HSSY-II complex spheroid growth, percent test/control
# Assay: Anticancer human tumor HSSY-II cell line growth inhibition [Asc];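 further: spheroids exposed to drug for 7 days before reading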
# Settings: for IC50: curve of first compound; for viability, T/C: stronger effect = lower value
# In short: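 Complex spheroids combining tumor cells with HUVEC endothelial cells and human MSCs, at 37 degrees C, 5% CO2; agents tested alone or combined, half-log dilutions from at or near clinical Cmax, or 10 microM if Cmax unknown.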
# [1] = second compound 0.1 µM, first compound 0.0316 µM
# [2] = second compound 0.1 µM, first compound 0.1 µM
# [3] = second compound 0.1 µM, first compound 0.316 µM
# [4] = second compound 0.1 µM, first compound 1 µM
# [5] = second compound 0.1 µM, first compound 3.16 µM
# [6] = second compound 0.1 µM, first compound 10 µM
# [7] = second compound 0.316 µM, first compound 0.0316 µM
# [8] = second compound 0.316 µM, first compound 0.1 µM
# [9] = second compound 0.316 µM, first compound 0.316 µM
# [10] = second compound 0.316 µM, first compound 1 µM
# [11] = second compound 0.316 µM, first compound 3.16 µM
# [12] = second compound 0.316 µM, first compound 10 µM
# [13] = second compound 1 µM, first compound 0.0316 µM
# [14] = second compound 1 µM, first compound 0.1 µM
# [15] = second compound 1 µM, first compound 0.316 µM
# [16] = second compound 1 µM, first compound 1 µM
# [17] = second compound 1 µM, first compound 3.16 µM
# [18] = second compound 1 µM, first compound 10 µM
# [19] = second compound 3.16 µM, first compound 0.0316 µM
# [20] = second compound 3.16 µM, first compound 0.1 µM
# [21] = second compound 10 µM, first compound 0.0316 µM
# [22] = second compound 10 µM, first compound 0.1 µM
smiles,measurement,setting,value
C=C(F)C(=O)N1CCN(c2nc(OCC3CCCN3C)nc3c2CCN(c2cccc4cccc(Cl)c24)C3)CC1CC#N (stereo not given) + CNC(C)C(=O)NC1CN(S(=O)(=O)c2cccc(S(=O)(=O)N3CCC4CCC(C(=O)NC(c5ccccc5)c5ccccc5)N4C(=O)C(NC(=O)C(C)NC)C3)c2)CCC2CCC(C(=O)NC(c3ccccc3)c3ccccc3)N2C1=O,IC50,second compound 0.01 µM,618 nM
same,IC50,second compound 0.0316 µM,1030 nM
same,IC50,second compound 0.1 µM,876 nM
same,IC50,second compound 0.316 µM,895 nM
same,IC50,second compound 1 µM,650 nM
same,"viability, T/C","second compound 0.01 µM, first compound 0.0316 µM",95.8%
same,"viability, T/C","second compound 0.01 µM, first compound 0.1 µM",91%
same,"viability, T/C","second compound 0.01 µM, first compound 0.316 µM",61.4%
same,"viability, T/C","second compound 0.01 µM, first compound 1 µM",45.9%
same,"viability, T/C","second compound 0.01 µM, first compound 3.16 µM",0.97%
same,"viability, T/C","second compound 0.01 µM, first compound 10 µM",0.1%
same,"viability, T/C","second compound 0.0316 µM, first compound 0.0316 µM",89.3%
same,"viability, T/C","second compound 0.0316 µM, first compound 0.1 µM",80.9%
same,"viability, T/C","second compound 0.0316 µM, first compound 0.316 µM",68.7%
same,"viability, T/C","second compound 0.0316 µM, first compound 1 µM",53.9%
same,"viability, T/C","second compound 0.0316 µM, first compound 3.16 µM",0.93%
same,"viability, T/C","second compound 0.0316 µM, first compound 10 µM",0.1%
same,"viability, T/C",[1],90%
same,"viability, T/C",[2],91.2%
same,"viability, T/C",[3],79.3%
same,"viability, T/C",[4],47.6%
same,"viability, T/C",[5],0.66%
same,"viability, T/C",[6],0.1%
same,"viability, T/C",[7],88.5%
same,"viability, T/C",[8],74.5%
same,"viability, T/C",[9],74.4%
same,"viability, T/C",[10],47.8%
same,"viability, T/C",[11],0.45%
same,"viability, T/C",[12],0.12%
same,"viability, T/C",[13],79.6%
same,"viability, T/C",[14],80.6%
same,"viability, T/C",[15],65.1%
same,"viability, T/C",[16],41.6%
same,"viability, T/C",[17],0.37%
same,"viability, T/C",[18],0.19%
CCN1C(C(=O)NC23CCC(C(=O)O)(CC2)CC3)C(c2cccc(Cl)c2F)C2(C(=O)Nc3cc(Cl)ccc32)C12CCCCC2 (stereo not given) + CNC(C)C(=O)NC1CN(S(=O)(=O)c2cccc(S(=O)(=O)N3CCC4CCC(C(=O)NC(c5ccccc5)c5ccccc5)N4C(=O)C(NC(=O)C(C)NC)C3)c2)CCC2CCC(C(=O)NC(c3ccccc3)c3ccccc3)N2C1=O,IC50,second compound 0.01 µM,88.2 nM
same,IC50,second compound 0.0316 µM,99 nM
same,IC50,second compound 0.1 µM,81.9 nM
same,IC50,second compound 0.316 µM,77.7 nM
same,IC50,second compound 1 µM,67.7 nM
same,"viability, T/C","second compound 0.01 µM, first compound 0.00949 µM",96%
same,"viability, T/C","second compound 0.01 µM, first compound 0.03 µM",82.6%
same,"viability, T/C","second compound 0.01 µM, first compound 0.0949 µM",47.9%
same,"viability, T/C","second compound 0.01 µM, first compound 0.3 µM",14.6%
same,"viability, T/C","second compound 0.01 µM, first compound 0.949 µM",2.75%
same,"viability, T/C","second compound 0.01 µM, first compound 3 µM",0.77%
same,"viability, T/C","second compound 0.0316 µM, first compound 0.00949 µM",84.7%
same,"viability, T/C","second compound 0.0316 µM, first compound 0.03 µM",65.1%
same,"viability, T/C","second compound 0.0316 µM, first compound 0.0949 µM",55.9%
same,"viability, T/C","second compound 0.0316 µM, first compound 0.3 µM",14.8%
same,"viability, T/C","second compound 0.0316 µM, first compound 0.949 µM",1.52%
same,"viability, T/C","second compound 0.0316 µM, first compound 3 µM",0.58%
same,"viability, T/C","second compound 0.1 µM, first compound 0.00949 µM",90%
same,"viability, T/C","second compound 0.1 µM, first compound 0.03 µM",81.2%
same,"viability, T/C","second compound 0.1 µM, first compound 0.0949 µM",44.6%
same,"viability, T/C","second compound 0.1 µM, first compound 0.3 µM",13.4%
same,"viability, T/C","second compound 0.1 µM, first compound 0.949 µM",1.69%
same,"viability, T/C","second compound 0.1 µM, first compound 3 µM",0.35%
same,"viability, T/C","second compound 0.316 µM, first compound 0.00949 µM",95.7%
same,"viability, T/C","second compound 0.316 µM, first compound 0.03 µM",85.1%
same,"viability, T/C","second compound 0.316 µM, first compound 0.0949 µM",41.8%
same,"viability, T/C","second compound 0.316 µM, first compound 0.3 µM",11.2%
same,"viability, T/C","second compound 0.316 µM, first compound 0.949 µM",1%
same,"viability, T/C","second compound 0.316 µM, first compound 3 µM",0.23%
same,"viability, T/C","second compound 1 µM, first compound 0.00949 µM",82.9%
same,"viability, T/C","second compound 1 µM, first compound 0.03 µM",74.4%
same,"viability, T/C","second compound 1 µM, first compound 0.0949 µM",39.8%
same,"viability, T/C","second compound 1 µM, first compound 0.3 µM",9.04%
same,"viability, T/C","second compound 1 µM, first compound 0.949 µM",1.32%
same,"viability, T/C","second compound 1 µM, first compound 3 µM",0.3%
Cn1ncnc1[C@H]1c2n[nH]c(=O)c3cc(F)cc(c23)N[C@@H]1c1ccc(F)cc1 + Cc1c(S(C)(=O)=O)c(-c2cc(F)cc(N3CCN(c4ccc(NS(=O)(=O)c5ccc(NC(CCN6CCC(C(=O)OCCCP(=O)(O)O)CC6)CSc6ccccc6)c(S(=O)(=O)C(F)(F)F)c5)cc4)CC3)c2)c(-c2ccc(Cl)cc2)n1C(C)C,IC50,second compound 0.1 µM,15.4 nM
same,IC50,second compound 0.316 µM,12.7 nM
same,IC50,second compound 1 µM,7.69 nM
same,IC50,second compound 3.16 µM,8.69 nM
same,IC50,second compound 10 µM,6.57 nM
same,"viability, T/C","second compound 0.1 µM, first compound 0.000316 µM",100%
same,"viability, T/C","second compound 0.1 µM, first compound 0.001 µM",98.9%
same,"viability, T/C","second compound 0.1 µM, first compound 0.00316 µM",81.1%
same,"viability, T/C","second compound 0.1 µM, first compound 0.01 µM",55.8%
same,"viability, T/C",[1],39.5%
same,"viability, T/C",[2],23.1%
same,"viability, T/C","second compound 0.316 µM, first compound 0.000316 µM",97.6%
same,"viability, T/C","second compound 0.316 µM, first compound 0.001 µM",82%
same,"viability, T/C","second compound 0.316 µM, first compound 0.00316 µM",71.7%
same,"viability, T/C","second compound 0.316 µM, first compound 0.01 µM",55.5%
same,"viability, T/C",[7],33.6%
same,"viability, T/C",[8],18.2%
same,"viability, T/C","second compound 1 µM, first compound 0.000316 µM",96.4%
same,"viability, T/C","second compound 1 µM, first compound 0.001 µM",82.2%
same,"viability, T/C","second compound 1 µM, first compound 0.00316 µM",63.4%
same,"viability, T/C","second compound 1 µM, first compound 0.01 µM",50.3%
same,"viability, T/C",[13],22.4%
same,"viability, T/C",[14],13%
same,"viability, T/C","second compound 3.16 µM, first compound 0.000316 µM",95.8%
same,"viability, T/C","second compound 3.16 µM, first compound 0.001 µM",84.2%
same,"viability, T/C","second compound 3.16 µM, first compound 0.00316 µM",73.6%
same,"viability, T/C","second compound 3.16 µM, first compound 0.01 µM",47.5%
same,"viability, T/C",[19],21.6%
same,"viability, T/C",[20],10.4%
same,"viability, T/C","second compound 10 µM, first compound 0.000316 µM",82.2%
same,"viability, T/C","second compound 10 µM, first compound 0.001 µM",75.5%
same,"viability, T/C","second compound 10 µM, first compound 0.00316 µM",65.4%
same,"viability, T/C","second compound 10 µM, first compound 0.01 µM",42.4%
same,"viability, T/C",[21],16.9%
same,"viability, T/C",[22],11.3%
O=C(c1cc(Cc2n[nH]c(=O)c3ccccc23)ccc1F)N1CCN(C(=O)C2CC2)CC1 + Cc1c(S(C)(=O)=O)c(-c2cc(F)cc(N3CCN(c4ccc(NS(=O)(=O)c5ccc(NC(CCN6CCC(C(=O)OCCCP(=O)(O)O)CC6)CSc6ccccc6)c(S(=O)(=O)C(F)(F)F)c5)cc4)CC3)c2)c(-c2ccc(Cl)cc2)n1C(C)C,IC50,second compound 0.1 µM,2440 nM
same,IC50,second compound 0.316 µM,1960 nM
same,IC50,second compound 1 µM,1500 nM
same,IC50,second compound 3.16 µM,1810 nM
same,IC50,second compound 10 µM,1460 nM
same,"viability, T/C",[1],103%
same,"viability, T/C",[2],98.9%
same,"viability, T/C",[3],93%
same,"viability, T/C",[4],77.8%
same,"viability, T/C",[5],41.7%
same,"viability, T/C",[6],8.94%
same,"viability, T/C",[7],82.7%
same,"viability, T/C",[8],88.3%
same,"viability, T/C",[9],86.8%
same,"viability, T/C",[10],78.1%
same,"viability, T/C",[11],29.8%
same,"viability, T/C",[12],6.49%
same,"viability, T/C",[13],81.8%
same,"viability, T/C",[14],92.8%
same,"viability, T/C",[15],76.2%
same,"viability, T/C",[16],64.1%
same,"viability, T/C",[17],26.4%
same,"viability, T/C",[18],5.63%
same,"viability, T/C",[19],93.2%
same,"viability, T/C",[20],92%
same,"viability, T/C","second compound 3.16 µM, first compound 0.316 µM",82.5%
same,"viability, T/C","second compound 3.16 µM, first compound 1 µM",76%
same,"viability, T/C","second compound 3.16 µM, first compound 3.16 µM",26.5%
same,"viability, T/C","second compound 3.16 µM, first compound 10 µM",3.28%
same,"viability, T/C",[21],83.5%
same,"viability, T/C",[22],90.2%
same,"viability, T/C","second compound 10 µM, first compound 0.316 µM",78.8%
same,"viability, T/C","second compound 10 µM, first compound 1 µM",66.7%
same,"viability, T/C","second compound 10 µM, first compound 3.16 µM",16.9%
same,"viability, T/C","second compound 10 µM, first compound 10 µM",2.61%
